Assay results as given in PubChem BioAssay AID330 (DTP/NCI, 2004).
Values joined by “and” are separate entries in the source; they are usually repeats but may differ in a detail not shown here. Identical values can stand only once. Inconclusive results and toxic doses are left out. Rule for the calls: active = survival T/C of 150% or more; inactive = T/C below 125% in these data.

Tested on: P388 leukemia ip, CD2F1 mice, survival T/C
Test: NCI In Vivo Anticancer Drug Screen. Data for tumor model P388 Leukemia (intraperitoneal) in CD2F1 (CDF1) mice
Conditions: endpoint: median survival time, higher = longer survival
Summary of the method: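 Mice carrying the transplanted tumor received test compound or vehicle. Survival was recorded in each group, and the value is the treated-group measurement divided by that of the vehicle-treated control group.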

[1] = dose: 50.0 mg/kg/injection, schedule: Q01DX005 (ip), vehicle: Klucel (hydroxypropylcellulose) (HPC)
[2] = dose: 100.0 mg/kg/injection, schedule: Q01DX005 (ip), vehicle: Klucel (hydroxypropylcellulose) (HPC)
[3] = dose: 200.0 mg/kg/injection, schedule: Q01DX005 (ip), vehicle: Klucel (hydroxypropylcellulose) (HPC)
[4] = dose: 50.0 mg/kg/injection, schedule: Q01DX009 (ip), vehicle: Klucel (hydroxypropylcellulose) (HPC)
[5] = dose: 100.0 mg/kg/injection, schedule: Q01DX009 (ip), vehicle: Klucel (hydroxypropylcellulose) (HPC)
[6] = dose: 200.0 mg/kg/injection, schedule: Q01DX009 (ip), vehicle: Klucel (hydroxypropylcellulose) (HPC)
[7] = dose: 100.0 mg/kg/injection, schedule: Q01DX009 (ip), vehicle: saline
[8] = dose: 200.0 mg/kg/injection, schedule: Q01DX009 (ip), vehicle: saline
[9] = dose: 50.0 mg/kg/injection, schedule: Q01DX009 (ip), vehicle: saline with Tween-80
[10] = dose: 100.0 mg/kg/injection, schedule: Q01DX009 (ip), vehicle: saline with Tween-80
[11] = dose: 200.0 mg/kg/injection, schedule: Q01DX009 (ip), vehicle: saline with Tween-80
[12] = dose: 50.0 mg/kg/injection, schedule: Q01DX005 (ip), vehicle: saline with Tween-80
[13] = dose: 100.0 mg/kg/injection, schedule: Q01DX005 (ip), vehicle: saline with Tween-80
[14] = dose: 200.0 mg/kg/injection, schedule: Q01DX005 (ip), vehicle: saline with Tween-80
[15] = dose: 12.5 mg/kg/injection, schedule: Q01DX009 (ip), vehicle: saline with Tween-80
[16] = dose: 25.0 mg/kg/injection, schedule: Q01DX009 (ip), vehicle: saline with Tween-80
[17] = dose: 50.0 mg/kg/injection, schedule: Q01DX009 (ip), vehicle: saline

Measured: T/C

CN(S(=O)(=O)CC(F)(F)F)S(=O)(=O)C(F)(F)F
inactive: dose: 1.56 mg/kg/injection, schedule: Q01DX009 (ip), vehicle: saline 120 % of control | dose: 2.05 mg/kg/injection, schedule: Q01DX009 (ip), vehicle: saline 93 % of control and 97 % of control | dose: 3.12 mg/kg/injection, schedule: Q01DX009 (ip), vehicle: saline 101 % of control and 102 % of control | dose: 4.68 mg/kg/injection, schedule: Q01DX009 (ip), vehicle: saline 102 % of control and 111 % of control | dose: 6.25 mg/kg/injection, schedule: Q01DX009 (ip), vehicle: saline 100 % of control

C=C(C)C(=NC(C)C)Nc1ccccc1Cl
inactive: [1] 92 % of control and 108 % of control | [2] 92 % of control and 107 % of control | [3] 98 % of control

Nc1cc2ccccc2c(Br)n1
inactive: dose: 100.0 mg/kg/injection, schedule: Q01DX001 (ip), vehicle: saline with Tween-80 100 % of control | dose: 200.0 mg/kg/injection, schedule: Q01DX001 (ip), vehicle: saline with Tween-80 95 % of control | dose: 400.0 mg/kg/injection, schedule: Q01DX001 (ip), vehicle: saline with Tween-80 100 % of control

CCCCCCCC/C=C\CCCCCCCC(=O)OCC(=O)OC
inactive: [4] 98 % of control | [5] 104 % of control | [6] 110 % of control

CC(=O)OCCOCNC(=S)NCc1ccco1
inactive: dose: 60.0 mg/kg/injection, schedule: Q01DX005 (ip), vehicle: saline with Tween-80 106 % of control | dose: 120.0 mg/kg/injection, schedule: Q01DX005 (ip), vehicle: saline with Tween-80 102 % of control | dose: 240.0 mg/kg/injection, schedule: Q01DX005 (ip), vehicle: saline with Tween-80 98 % of control

COC1=CC(=[N+]2CCCCC2)CC(C)(C)C1
inactive: dose: 25.0 mg/kg/injection, schedule: Q01DX005 (ip), vehicle: saline 98 % of control | dose: 50.0 mg/kg/injection, schedule: Q01DX005 (ip), vehicle: saline 100 % of control

O=C(O)[C@@H]1[C@H](C(=O)O)[C@H](C(=O)O)C[C@@H]1C(=O)O
inactive: [7] 108 % of control | [8] 105 % of control

Cc1ccc(S(=O)(=O)Nc2ccccc2OCCN(CCOc2ccccc2NS(=O)(=O)c2ccc(C)cc2)S(=O)(=O)c2ccc(C)cc2)cc1
inactive: [9] 96 % of control | [10] 99 % of control | [11] 93 % of control

CCC(NN)C(=O)OCc1ccccc1 (stereo not drawn)
inactive: [1] 97 % of control | [2] 95 % of control | [3] 103 % of control

CC1(c2ccccc2)Nc2ccccc2C1=Nc1ccccc1 (stereo not drawn)
inactive: dose: 50.0 mg/kg/injection, schedule: Q04DX003 (ip), vehicle: saline with Tween-80 99 % of control | dose: 100.0 mg/kg/injection, schedule: Q04DX003 (ip), vehicle: saline with Tween-80 96 % of control | dose: 200.0 mg/kg/injection, schedule: Q04DX003 (ip), vehicle: saline with Tween-80 100 % of control

CC1(Cc2ccccc2)NC(=O)NC1=O (stereo not drawn)
inactive: [4] 100 % of control | [5] 104 % of control | [6] 105 % of control

C=C(c1ccc(N(CC)CC)cc1)c1ccc(N(CC)CC)cc1
inactive: [12] 95 % of control | [13] 103 % of control | [14] 90 % of control

COc1cc(OC)c(C(=O)O)cc1Cl
inactive: dose: 100.0 mg/kg/injection, schedule: Q04DX003 (ip), vehicle: Klucel (hydroxypropylcellulose) (HPC) 100 % of control | dose: 200.0 mg/kg/injection, schedule: Q04DX003 (ip), vehicle: Klucel (hydroxypropylcellulose) (HPC) 101 % of control | dose: 400.0 mg/kg/injection, schedule: Q04DX003 (ip), vehicle: Klucel (hydroxypropylcellulose) (HPC) 100 % of control

COc1ccc(C2CC(=O)N(CN3CCN(c4ccccc4)CC3)C(=O)C2)cc1
inactive: [15] 98 % of control | [16] 93 % of control | [9] 87 % of control and 92 % of control

O=c1[nH]c(=O)c2nc(-c3cccnc3)cnc2[nH]1
inactive: [17] 103 % of control and 120 % of control

COc1ccc(CCNC(=O)C(Sc2ccccn2)c2ccccc2)cc1OC (stereo not drawn)
inactive: [1] 94 % of control | [2] 103 % of control | [3] 98 % of control

CCCC(=O)Oc1ccc[nH]c1=O
inactive: dose: 3.13 mg/kg/injection, schedule: Q01DX009 (ip), vehicle: distilled water + Tween-80 100 % of control | dose: 3.13 mg/kg/injection, schedule: Q01DX009 (ip), vehicle: water 92 % of control | dose: 6.25 mg/kg/injection, schedule: Q01DX009 (ip), vehicle: distilled water + Tween-80 107 % of control | dose: 6.25 mg/kg/injection, schedule: Q01DX009 (ip), vehicle: water 92 % of control | dose: 12.5 mg/kg/injection, schedule: Q01DX009 (ip), vehicle: distilled water + Tween-80 106 % of control | dose: 12.5 mg/kg/injection, schedule: Q01DX009 (ip), vehicle: water 92 % of control | dose: 25.0 mg/kg/injection, schedule: Q01DX009 (ip), vehicle: distilled water + Tween-80 100 % of control | dose: 25.0 mg/kg/injection, schedule: Q01DX009 (ip), vehicle: water 99 % of control and 107 % of control | dose: 50.0 mg/kg/injection, schedule: Q01DX009 (ip), vehicle: distilled water + Tween-80 109 % of control | dose: 50.0 mg/kg/injection, schedule: Q01DX009 (ip), vehicle: water 114 % of control | dose: 100.0 mg/kg/injection, schedule: Q01DX009 (ip), vehicle: water 114 % of control | dose: 200.0 mg/kg/injection, schedule: Q01DX009 (ip), vehicle: water 115 % of control

CCCCCCCCCCCCOP(=O)(CC(=O)NCc1cc(C(C)(C)C)c(O)c(C(C)(C)C)c1)OCCCCCCCCCCCC
inactive: [9] 92 % of control | [10] 92 % of control | [11] 90 % of control

Cc1ccc(OP(=O)(Oc2ccc(C)cc2)Oc2ccc(C)cc2)cc1.Cc1ccc(OP(=O)(Oc2ccc(C)cc2)Oc2ccc(C)cc2)cc1.[Cl][Cr]([Cl])[Cl]
inactive: dose: 100.0 mg/kg/injection, schedule: Q01DX001 (ip), vehicle: Klucel (hydroxypropylcellulose) (HPC) 100 % of control | dose: 200.0 mg/kg/injection, schedule: Q01DX001 (ip), vehicle: Klucel (hydroxypropylcellulose) (HPC) 95 % of control | dose: 400.0 mg/kg/injection, schedule: Q01DX001 (ip), vehicle: Klucel (hydroxypropylcellulose) (HPC) 99 % of control

Nc1cc2[nH]c(=O)oc2cc1Cl
inactive: [1] 94 % of control | [2] 100 % of control | [3] 94 % of control

CCCCCCCCCCCc1c(O)c(O)c(-c2ccccn2)c2nonc12
inactive: [12] 106 % of control | [13] 103 % of control | [14] 98 % of control

CC(C)(C)n1nc(C2CC2)c(Br)c1NC(=O)c1ccccc1F
inactive: dose: 30.0 mg/kg/injection, schedule: Q01DX005 (ip), vehicle: Klucel (hydroxypropylcellulose) (HPC) 100 % of control | dose: 60.0 mg/kg/injection, schedule: Q01DX005 (ip), vehicle: Klucel (hydroxypropylcellulose) (HPC) 98 % of control | dose: 120.0 mg/kg/injection, schedule: Q01DX005 (ip), vehicle: Klucel (hydroxypropylcellulose) (HPC) 104 % of control | dose: 240.0 mg/kg/injection, schedule: Q01DX005 (ip), vehicle: Klucel (hydroxypropylcellulose) (HPC) 100 % of control

CCNC(=O)Nc1ccc(Cl)cn1
inactive: [17] 102 % of control | [7] 105 % of control | [8] 105 % of control

COC(=O)c1nc(=S)[nH]c(C(=O)OC)c1C(=O)c1cccc(O)c1
inactive: dose: 60.0 mg/kg/injection, schedule: Q01DX005 (ip), vehicle: suspension in saline 95 % of control | dose: 120.0 mg/kg/injection, schedule: Q01DX005 (ip), vehicle: suspension in saline 90 % of control

NC(=O)C(Cl)Cn1ccnc1 (stereo not drawn)
inactive: dose: 50.0 mg/kg/injection, schedule: Q04DX003 (ip), vehicle: saline 103 % of control | dose: 100.0 mg/kg/injection, schedule: Q04DX003 (ip), vehicle: saline 100 % of control | dose: 200.0 mg/kg/injection, schedule: Q04DX003 (ip), vehicle: saline 110 % of control

CC1NNC(=S)NN1
inactive: dose: 15.0 mg/kg/injection, schedule: Q01DX005 (ip), vehicle: saline with Tween-80 101 % of control | dose: 30.0 mg/kg/injection, schedule: Q01DX005 (ip), vehicle: saline with Tween-80 101 % of control

COc1ccc(OC)c(C=Nc2ccc(S(=O)(=O)Nc3nccc(C)n3)cc2)c1
inactive: [15] 90 % of control | [16] 90 % of control | [9] 87 % of control | [11] 100 % of control
